Columns and labels:
[1] = compound: C1=CC2=NC=CN=C2C=C1/C=C/3\C(=O)NC(=O)S3 + Cc1nc(Nc2ncc(C(=O)Nc3c(C)cccc3Cl)s2)cc(N2CCN(CCO)CC2)n1 [Dasatinib] (partner 0.075 µM); test: relative viability (nuclei count vs DMSO), 5 days (fraction); higher = more cells survive
How it was run: (§1)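 Five library-drug doses in √10 steps were combined with a fixed anchor-drug dose, or a single drug was given alone, by pin tool to lung cancer cell lines in 1536-well plates the day after seeding. Nuclei were stained and counted after 5 days. Relative viability is the nuclei count in treated wells over that in vehicle wells, taken as the median of duplicate plates.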

[2] = compound: C1=CC2=NC=CN=C2C=C1/C=C/3\C(=O)NC(=O)S3 + CCNC(=O)c1noc(-c2cc(C(C)C)c(O)cc2O)c1-c1ccc(CN2CCOCC2)cc1 [Luminespib] (partner 0.01 µM); test: as above
How it was run: as §1

Cell Line	relative viability ([1]; first compound 0.02 µM)	relative viability ([1]; first compound 0.06325 µM)	relative viability ([1]; first compound 0.2 µM)	relative viability ([1]; first compound 0.6325 µM)	relative viability ([1]; first compound 2 µM)	relative viability ([2]; first compound 0.02 µM)	relative viability ([2]; first compound 0.06325 µM)	relative viability ([2]; first compound 0.2 µM)	relative viability ([2]; first compound 0.6325 µM)	relative viability ([2]; first compound 2 µM)
NCI-H522	0.899	1.06	0.942	1.09	0.714	1.06	1.09	1.18	1.05	0.956
HCC-15	0.665	0.644	0.687	0.55	0.42	0.278	0.197	0.271	0.304	0.214
A-427	0.685	0.753	0.692	0.659	0.541	0.978	0.958	1	0.842	0.991
NCI-H2228	0.414	0.448	0.47	0.389	0.388	0.157	0.132	0.152	0.156	0.137
NCI-H1734	0.463	0.468	0.467	0.41	0.269	0.245	0.217	0.182	0.194	0.257
PC-14	0.287	0.207	0.301	0.265	0.238	0.145	0.19	0.195	0.193	0.152
NCI-H1915	0.297	0.313	0.332	0.297	0.282	0.771	0.747	0.815	0.618	0.754
NCI-H1666	0.716	0.835	0.772	0.819	0.575	1.04	0.994	1.05	0.965	1.03
HCC-366	0.613		0.645	0.552	0.0998					
SK-MES-1	0.456	0.267	0.375	0.339	0.211	0.645	0.876	0.877	0.779	0.852
SW 1573	0.392	0.76	0.69	0.523	0.291	0.492	0.267	0.222	0.762	0.208
NCI-H661	1.03	1.12	0.935	0.748	0.722	0.958	0.961	0.937	0.943	1.05
PC-3 [JPC-3]	0.84	1.05	0.968	1.01	0.821	0.704	0.767	0.732	0.687	0.813
NCI-H1623	0.511	0.523	0.526	0.524	0.422	0.379	0.431	0.474	0.47	0.335
LC-2-ad	0.843	0.528	0.746	0.622	0.256	0.984	0.727	1.08	1.07	0.739
CAL-12T	0.417	0.34	0.439	0.304	0.139	0.456	0.417	0.686	0.623	0.234
RERF-LC-KJ	0.621	0.911	0.933	0.654	0.66	1.2	1.52	1.23	1.14	1.28
NCI-H1650	0.274	0.355	0.364	0.289	0.248	0.221	0.194	0.209	0.209	0.171
BEN	0.362	0.35	0.297	0.352	0.252	0.631	0.19	0.402	0.332	0.314
EMC-BAC-2	0.309	0.297	0.33	0.322	0.224	1.13	1.22	1.17	1.09	1.02
LU99A	0.576	0.922	0.462	0.508	0.287	0.296	0.207	0.294	0.267	0.24
ABC-1	0.507	0.757	0.488	0.611	0.538		0.872	0.616	0.519	0.982
NCI-H2170	0.495	0.611	0.508	0.48	0.597	0.757	0.942	0.79	0.525	0.717
NCI-H2347	0.318	0.26	0.306	0.304	0.293	0.38	0.288	0.548	0.354	0.431
NCI-H1993	0.516	0.592	0.667	0.581	0.521	0.712	0.863	0.854	0.798	0.557
NCI-H322M	0.274	0.27	0.269	0.239	0.238	0.95	0.76	0.707	0.8	0.522
NCI-H838	0.278	0.179	0.311	0.257	0.187	0.295	0.446	0.267	0.26	0.324

Cell Line	relative viability ([1]; first compound 0.02 µM)	relative viability ([1]; first compound 0.06325 µM)	relative viability ([1]; first compound 0.2 µM)	relative viability ([1]; first compound 0.6325 µM)	relative viability ([1]; first compound 2 µM)	relative viability ([2]; first compound 0.02 µM)	relative viability ([2]; first compound 0.06325 µM)	relative viability ([2]; first compound 0.2 µM)	relative viability ([2]; first compound 0.6325 µM)	relative viability ([2]; first compound 2 µM)
HARA	0.278	0.315	0.3	0.243	0.194	0.811	0.643	0.706	0.742	0.797
NCI-H2087	0.761	0.713	0.911	0.857	0.507	0.169	0.208	0.227	0.173	0.203
NCI-H1437	0.656	0.353	0.406	0.353	0.174	1.09	1.14	1.05	1.08	1.12
NCI-H2342	0.305	0.315	0.334	0.309	0.283	0.721	0.672	0.756	0.601	0.636
NCI-H1792	0.763	0.653	0.807	0.818	0.311	0.418	0.29	0.453	0.436	0.374
ChaGo-K-1	0.611	0.574	0.596	0.544	0.499	0.553	0.454	0.762	0.541	0.572
NCI-H650	0.524	0.468	0.561	0.415	0.286	0.719	0.872	0.755	0.709	0.627
COR-L23	0.446	0.481	0.395	0.477	0.344	0.684	0.842	0.77	0.581	0.652
COR-L 105	0.343	0.344	0.376	0.402	0.279	0.727	0.997	0.816	0.695	0.618
LK-2	0.291	0.349	0.306	0.297	0.189	0.186	0.202	0.28	0.175	0.175
201T	0.543	0.619	0.583	0.556	0.28	1.04	1.04	1.04	1.02	0.986
HCC-44						1	0.829	1.06	1.04	0.868
NCI-H596	0.67	0.588	0.62	0.528	0.427	1.13	1.13	1.15	0.991	0.939
H3255	0.365	0.329	0.348	0.379	0.38	0.879	0.793	0.909	0.857	0.809
NCI-H647	0.173	0.259	0.256	0.149	0.103	0.173	0.196	0.168	0.127	0.102
NCI-H2023	0.5	0.55	0.582	0.446	0.246	0.701	0.713	0.773	0.757	0.745
NCI-H23	0.703	0.976	0.715	0.754	0.29	0.254	0.219	0.219	0.217	0.184
NCI-H1944	0.227	0.191	0.209	0.193	0.147	0.667	0.515	0.75	0.695	0.656
NCI-H1793	0.407	0.39	0.368	0.354	0.328	0.201	0.188	0.169	0.169	0.174
NCI-H520	0.181	0.229	0.217	0.161	0.151	0.204	0.22	0.257	0.191	0.248
NCI-H460	0.53	0.782	0.477	0.362	0.0894	0.0317	0.0415	0.0283	0.0303	0.0362
EKVX	0.515	0.356	0.701	0.524	0.427	0.846	0.636	0.831	0.839	0.776
NCI-H358	0.151	0.202	0.167	0.14	0.105	0.265	0.35	0.347	0.224	0.182
EPLC-272H	0.43	0.462	0.421	0.294	0.153	0.447	0.214	0.328	0.267	0.198
NCI-H1563	0.477	0.435	0.523	0.486	0.316	0.512	0.469	0.514	0.438	0.509
HCC-78	0.381	0.705	0.517	0.392	0.184					
